Experimental data reported in US20090143279A1 (priority 2007, published 2009).
Where two headings read alike, the source gives them in different places.

Tests used:
[1] = tested on: mitochondrial membrane potential; type: cell-based, mouse
[2] = tested on: cellular dehydrogenase activity
OXPHOS gene expression = type: cell-based, mouse
mtOXPHOS transcripts = type: cell-based, mouse
nuOXPHOS transcripts = type: cell-based, mouse
cytochrome c = type: cell-based, mouse
reactive oxygen species = type: cell-based, mouse
[3] = normalized composite Z-score vs mock-treated (DMSO) wells, Conc 20 μM
[4] = Conc 27.36 μM, normalized score vs mock-treated (DMSO) wells
[5] = composite Z-score vs DMSO, Conc 20 μM
[6] = 20 μM, composite Z-score vs DMSO
[7] = composite Z-score vs mock-treated (DMSO) wells, concentration of each compound in μM
[8] = composite Z-score vs DMSO, Conc 20.18 μM

COc1c(-c2coc3cc4c(cc3c2=O)CC(O)C(C)(C)O4)ccc2c1C=CC(C)(C)O2 (stereo not drawn) [mundulone, reference compound]
ΔΨm [1, 3]: 3.037
Viability (C2C12 myotubes; [3]): −1.113
MTT [2, 3]: −2.487
GE-HTS (OXPHOS gene expression; [3]): −1.719
mitoOX (mtOXPHOS transcripts; [3]): −1.091
nucOX (nuOXPHOS transcripts; [3]): −1.888
cyt c (cytochrome c; [3]): −0.843
ROS (reactive oxygen species; [3]): −0.141

c1cncc(C2=NCCC2)c1 [myosmine]
ΔΨm (composite Z-score) [1, 4]: 0.326
Viability (composite Z-score) (C2C12 myotubes; [4]): −0.497
MTT (composite Z-score) [2, 4]: −1.423
GE-HTS (composite Z-score) (OXPHOS gene expression; [4]): 0.445
mitoOX (composite Z-score) (mtOXPHOS transcripts; [4]): −0.195
nucOX (composite Z-score) (nuOXPHOS transcripts; [4]): 0.712
cyt c (composite Z-score) (cytochrome c; [4]): 1.184
ROS (composite Z-score) (reactive oxygen species; [4]): 1.543

COc1ccc2cc([C@H](C)CO)ccc2c1 [naproxol]
ΔΨm [1, 5]: −0.500
Viability (C2C12 myotubes; [5]): 0.249
MTT [2, 5]: −1.522
GE-HTS (OXPHOS gene expression; [5]): −0.895
mitoOX (mtOXPHOS transcripts; [5]): −0.018
nucOX (nuOXPHOS transcripts; [5]): −1.214
cyt c (cytochrome c; [5]): 0.993
ROS (reactive oxygen species; [5]): −0.319

NC[C@@H]1O[C@H](O[C@H]2[C@@H](O)[C@H](O[C@@H]3[C@@H](O)[C@H](N)C[C@H](N)[C@H]3O[C@H]3O[C@H](CN)[C@@H](O)[C@H](O)[C@H]3N)O[C@@H]2CO)[C@H](N)[C@@H](O)[C@@H]1O [neomycin]
ΔΨm [1, 5]: −0.599
Viability (C2C12 myotubes; [5]): −1.255
MTT [2, 5]: −1.478
GE-HTS (OXPHOS gene expression; [5]): 0.817
mitoOX (mtOXPHOS transcripts; [5]): 1.160
nucOX (nuOXPHOS transcripts; [5]): 0.598
cyt c (cytochrome c; [5]): 0.734
ROS (reactive oxygen species; [5]): 1.203

CC(=O)OC1CCC2(C)C(CCC3C2CCC2(C)C3CC3OC4(CCC(C)CO4)C(C)C32)C1 (stereo not drawn) [neotigogenin acetate]
ΔΨm [1, 3]: −0.822
Viability (C2C12 myotubes; [3]): −0.705
MTT [2, 3]: −1.611
GE-HTS (OXPHOS gene expression; [3]): −0.890
mitoOX (mtOXPHOS transcripts; [3]): −0.693
nucOX (nuOXPHOS transcripts; [3]): −0.925
cyt c (cytochrome c; [3]): −0.049
ROS (reactive oxygen species; [3]): −0.437

O=C(Nc1ccc([N+](=O)[O-])cc1Cl)c1cc(Cl)ccc1O [niclosamide]
ΔΨm [1]: −3.700
ΔΨm [1, 6]: −4.256
Viability (C2C12 myotubes): −1.410
Viability (C2C12 myotubes; [6]): −0.944
MTT [2]: −3.816
MTT [2, 6]: −0.296
GE-HTS (OXPHOS gene expression): −0.976
GE-HTS (OXPHOS gene expression; [6]): −1.042
mitoOX (mtOXPHOS transcripts): −0.755
mitoOX (mtOXPHOS transcripts; [6]): −2.299
nucOX (nuOXPHOS transcripts): −1.007
nucOX (nuOXPHOS transcripts; [6]): −0.288
cyt c (cytochrome c): −3.177
cyt c (cytochrome c; [6]): −2.947
ROS (reactive oxygen species): −3.069
ROS (reactive oxygen species; [6]): −3.862

CN1CCC[C@H]1c1cccnc1 [nicotine]
ΔΨm [1]: −0.423
Viability (C2C12 myotubes): −0.093
MTT [2]: −1.228
GE-HTS (OXPHOS gene expression): −1.360
mitoOX (mtOXPHOS transcripts): −1.705
nucOX (nuOXPHOS transcripts): −1.032
cyt c (cytochrome c): 0.348
ROS (reactive oxygen species): 0.503

c1ccc2c3c([nH]c2c1)[C@H]1[C@H]2CC[C@H]([C@@H]4CCCN[C@@H]42)N1CC3 [nitrarine]
ΔΨm [1, 7]: −0.986
Viability (C2C12 myotubes; [7]): −0.068
MTT [2, 7]: −1.978
GE-HTS (OXPHOS gene expression; [7]): −0.352
mitoOX (mtOXPHOS transcripts; [7]): −0.378
nucOX (nuOXPHOS transcripts; [7]): −0.303
cyt c (cytochrome c; [7]): 0.040
ROS (reactive oxygen species; [7]): 0.458

NC(=O)N/N=C/c1ccc([N+](=O)[O-])o1 [nitrofural]
ΔΨm [1, 8]: −0.518
Viability (C2C12 myotubes; [8]): 0.584
MTT [2, 8]: −0.852
GE-HTS (OXPHOS gene expression; [8]): −0.260
mitoOX (mtOXPHOS transcripts; [8]): −0.750
nucOX (nuOXPHOS transcripts; [8]): −0.010
cyt c (cytochrome c; [8]): 0.342
ROS (reactive oxygen species; [8]): 0.446

NC(=O)N/N=C/c1ccc([N+](=O)[O-])o1 [nitrofurazone]
ΔΨm [1, 5]: −0.185
Viability (C2C12 myotubes; [5]): 0.544
MTT [2, 5]: −0.617
GE-HTS (OXPHOS gene expression; [5]): −0.199
mitoOX (mtOXPHOS transcripts; [5]): −0.643
nucOX (nuOXPHOS transcripts; [5]): 0.038
cyt c (cytochrome c; [5]): 0.785
ROS (reactive oxygen species; [5]): 2.173

NC(=O)c1cc([N+](=O)[O-])cc([N+](=O)[O-])c1 [nitromide]
ΔΨm [1, 6]: 1.648
Viability (C2C12 myotubes; [6]): −0.259
MTT [2, 6]: −1.071
GE-HTS (OXPHOS gene expression; [6]): −0.128
mitoOX (mtOXPHOS transcripts; [6]): −0.086
nucOX (nuOXPHOS transcripts; [6]): −0.100
cyt c (cytochrome c; [6]): −0.346
ROS (reactive oxygen species; [6]): 1.299

CN1Cc2c(N)cccc2C(c2ccccc2)C1 (stereo not drawn) [nomifensin]
ΔΨm [1]: −0.329
ΔΨm [1, 6]: −0.059
Viability (C2C12 myotubes): 0.121
Viability (C2C12 myotubes; [6]): 0.525
MTT [2]: −0.534
MTT [2, 6]: −0.885
GE-HTS (OXPHOS gene expression): −0.331
GE-HTS (OXPHOS gene expression; [6]): −0.131
mitoOX (mtOXPHOS transcripts): 0.181
mitoOX (mtOXPHOS transcripts; [6]): −0.026
nucOX (nuOXPHOS transcripts): −0.571
nucOX (nuOXPHOS transcripts; [6]): −0.169
cyt c (cytochrome c): −1.298
cyt c (cytochrome c; [6]): −1.233
ROS (reactive oxygen species): 3.133
ROS (reactive oxygen species; [6]): 3.112

CCCCC[C@H](CC(=O)O)C(=O)O [nonic acid]
ΔΨm [1, 3]: −0.931
Viability (C2C12 myotubes; [3]): −1.043
MTT [2, 3]: −1.857
GE-HTS (OXPHOS gene expression; [3]): −0.080
mitoOX (mtOXPHOS transcripts; [3]): 0.061
nucOX (nuOXPHOS transcripts; [3]): −0.104
cyt c (cytochrome c; [3]): −0.133
ROS (reactive oxygen species; [3]): 1.211
